Data set [1] has as its system Malassezia furfur CBS 7019. The data set can be described thus: Formulation bio-efficacy (Malassezia kill) by Vitro-Skin assay. The format is cell-based. The following applies: FIG. 5. The method, then:
Assessment of Formulation Bio-Efficacy (Malassezia Kill) by Vitro-Skin™ Assay Formulation bio-efficacy was assessed using an in vitro substantivity assay which evaluates the effectiveness of actives in shampoo and conditioners using Malassezia furfur CBS 7019 as the organism. Malassezia furfur for the inoculation of artificial skin were initially grown in Pityrosporum Broth, and added to molten agar slurry immediately prior to the inoculation of the Vitro-Skin™ at a final concentration of 1-3×10^5 cells/ml. Vitro-Skin™ was placed onto a Modified Dixon Agar Plate (1 skin per plate), and 0.5 ml of agar slurry inoculum was gently pipetted onto the rough surface of the skin, in a film 1-2 mm deep. After the agar had gelled, the plates were placed in an incubator (32° C.) for 24 h. Following incubation, each piece of Vitro-Skin™ was carefully folded in half (inoculum on the inside) using sterile forceps, and placed a vial containing 10 ml of Butterfield's phosphate buffer (pH 7.2), 0.1% Triton X-100, 0.5% Tween and 0.08% lecithin. The vial was vortexed for 1 min (high setting), and 1 ml of this sample (10°) then added to 9 ml of 0.1% peptone (in water: 10^−1 sample). This sample was then serially diluted to 10^−5 in 0.1% peptone. For immediate controls, 0.1 ml of 10^0-10^−4 dilutions were plated onto Modified Dixon Agar Plates. For 24 h incubated samples, 0.1 ml of 10^0-10^−5 dilutions were plated onto Modified Dixon Agar Plates, and incubated at 32° C. for 4-5 days. The number of colonies on each plate were then counted, and final numbers determined by multiplying by the appropriate dilution.

For data set [2] the following is noted: cited from earlier work.
[3] abbreviates: 0.2% active alone in shampoo formula 1.

Take `CC(=O)N1CCN(c2ccc(OC[C@@H]3CO[C@@](Cn4ccnc4)(c4ccc(Cl)cc4Cl)O3)cc2)CC1` [ketoconazole, 1-[4-[4-[[(2S,4R)-2-(2,4-dichlorophenyl)-2-(imidazol-1-ylmethyl)-1,3-dioxolan-4-yl]methoxy]phenyl]piperazin-1-yl]ethanone]: the “microkill (Malassezia furfur kill)” value in data set [1] (0.1% active alone in shampoo formula 1) is recorded as “relatively ineffective”; in data set [1] (setting [3]), “highly effective”. The solubility in ethanol entry in data set [2] (ethanol, ambient temperature) is “soluble”. Moreover, the solubility in water result in data set [2] (water) is listed as “virtually insoluble”.
`CC1CCC(C(C)C)C(O)C1` (stereo not drawn) [menthol]: in data set [1] (setting [3]), the “microkill (Malassezia furfur kill)” value was “relatively ineffective”.
Regarding `O=C(O)c1ccccc1O` [salicylic acid], the “microkill (Malassezia furfur kill)” value in data set [1] (setting [3]) is on record as “relatively ineffective”.

These data come from patent US8501743B2, “Personal care composition” (Conopco, Inc., priority 2007, dated 2013).
